Experimental data from patent US10815230B2, “Casein kinase 1 delta inhibitor” (ELECTROPHORETICS LIMITED, priority 2015, dated 2020).
Like-named read-outs stand apart in the source and are kept apart here.

What was measured:
ROCK1 = ROCK1 (Homo sapiens, UniProt Q13464); experiment: Kinase selectivity, % remaining activity; format: biochemical; details: 10 μM compound, 10 μM ATP, duplicate; for remaining activity at 10 µM: read-out: % of remaining activity (relative to DMSO)
Outline: (§1)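 Duplicate single-dose reactions were performed with 10 μM test compound and 10 μM ATP. Results give the fraction of activity retained, in % of DMSO control.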

MSK1/RPS6KA5 = MSK1/RPS6KA5 (Homo sapiens, UniProt O75582); experiment: Kinase selectivity, % remaining activity; format: biochemical; details: 10 μM compound, 10 μM ATP, duplicate; for remaining activity at 10 µM: read-out: % of remaining activity (relative to DMSO)
Outline: as §1

EGFR = EGFR (Homo sapiens, UniProt P00533); experiment: Kinase selectivity, % remaining activity; format: biochemical; details: 10 μM compound, 10 μM ATP, duplicate; for remaining activity at 10 µM: read-out: % of remaining activity (relative to DMSO)
Outline: as §1

CDK5/p25 = CDK5/p25 (Homo sapiens, UniProt Q00535); experiment: Kinase selectivity, % remaining activity; format: biochemical; details: 10 μM compound, 10 μM ATP, duplicate; for remaining activity at 10 µM: read-out: % of remaining activity (relative to DMSO)
Outline: as §1

CK1a1 = CK1a1 (Homo sapiens, UniProt P48729); experiment: Kinase selectivity, % remaining activity; format: biochemical; details: 10 μM compound, 10 μM ATP, duplicate
Experimental: (§2) Compounds were tested in single dose duplicate mode at a concentration of 10 μM (in DMSO) and reactions were carried out at 10 μM ATP, Table 3 reports the % of remaining activity (relative to DMSO).

[1] = molecular target: CK1d (casein kinase 1 delta) (Homo sapiens, UniProt P48730); experiment: Kinase selectivity, % remaining activity and IC50; format: biochemical; details: 10 μM ATP; for % of remaining activity (relative to DMSO) / remaining activity at 10 µM: CK1d, 10 μM compound, duplicate; for remaining activity at 10 µM: read-out: % of remaining activity (relative to DMSO); for IC50: casein kinase 1 delta, 10-dose, 3 fold serial dilution
Experimental: A two-tier strategy to determine the selectivity of compound A was applied: first, the compound was tested at a single concentration (in duplicate) to determine the %-remaining activity of the target kinase. Subsequently, the IC50 of compound A and comparative compounds for casein kinase 1 delta were determined.
as §2
Control compound GW5074 (Tocris®) was tested starting at 20 μM. Reactions were carried out at 10 μM ATP.

PIK3CA (E542K) = PIK3CA (E542K) (Homo sapiens, UniProt P42336, E542K); experiment: KINOMEscan binding assay; details: read-out: % Ctrl @ 10000 nM
LRRK2 = LRRK2 (Homo sapiens, UniProt Q5S007); experiment: KINOMEscan binding assay; details: read-out: % Ctrl @ 10000 nM
ZAP70 = molecular target: T1, ZAP70 (Homo sapiens, UniProt P43403); experiment: KINOMEscan binding assay; details: read-out: % Ctrl @ 10000 nM
T1 construct: purchased DiscoveRx (KINOMEscan, LeadHunter Discovery services)

VEGFR2 = molecular target: T2, VEGFR2 (Homo sapiens, UniProt P35968); experiment: KINOMEscan binding assay; details: read-out: % Ctrl @ 10000 nM
T2 construct: purchased DiscoveRx (KINOMEscan, LeadHunter Discovery services)

CIT = CIT (Homo sapiens, UniProt O14578); experiment: KINOMEscan binding assay; details: read-out: % Ctrl @ 10000 nM
[2] = molecular target: ABL1 (F317I) phosphorylated (Homo sapiens, UniProt P00519, F317I); experiment: KINOMEscan binding assay; details: read-out: % Ctrl @ 10000 nM
PCTK2 = PCTK2 (Homo sapiens, UniProt Q00537); experiment: KINOMEscan binding assay; details: read-out: % Ctrl @ 10000 nM
CDKL3 = CDKL3 (Homo sapiens, UniProt Q8IVW4); experiment: KINOMEscan binding assay; details: read-out: % Ctrl @ 10000 nM
TAOK1 = TAOK1 (Homo sapiens, UniProt Q7L7X3); experiment: KINOMEscan binding assay; details: read-out: % Ctrl @ 10000 nM
ZAK = molecular target: T3, ZAK (Homo sapiens, UniProt Q9NYL2); experiment: KINOMEscan binding assay; details: read-out: % Ctrl @ 10000 nM
T3 construct: purchased DiscoveRx (KINOMEscan, LeadHunter Discovery services)

MAP3K1 = molecular target: T4, MAP3K1 (Homo sapiens, UniProt Q13233); experiment: KINOMEscan binding assay; details: read-out: % Ctrl @ 10000 nM
T4 construct: T7 phage fusion (most assays) or DNA label after HEK293 expression; purchased DiscoveRx (KINOMEscan, LeadHunter Discovery services); host or cells: T7 phage in E. coli (BL21-derived) or HEK293

TRKC = TRKC (Homo sapiens, UniProt Q16288); experiment: KINOMEscan binding assay; details: read-out: % Ctrl @ 10000 nM
[3] = test system: TMHT (Thy-1 Mutated Human Tau) mouse; experiment: In-vivo efficacy, Morris Water Maze in tau transgenic mice; details: 30 mg/kg orally for 8 weeks
Text: Various compounds of different classes (among them also antibody treatments) were positively tested for their efficacy in the TMHT model. Published examples are the γ-secretase modulator CHF5074 (Lanzilotta A, et al. The γ-secretase modulator CHF5074 reduces the accumulation of native hyperphosphoxylated tau in a transgenic mouse model of Alzheimer's disease. J Mol Neurosci. 45(1):22--33 (2010)), sodium selenate (Corcoran N M et al. Sodium selenate specifically activates PP2A phosphatase, dephosphorylates tau and reverses memory deficits in an Alzheimer's disease model. J Clin Neurosci. 17(8):1025-33 (2010)) and grape-seed polyphenol extract (Wang J et al. Grape derived polyphenols attenuate tau neuropathology in a mouse model of Alzheimer's disease. […] The effects of the compounds on learning in the Morris Mater Maze (MWM) were evaluated. Blood (plasma) and brain samples were collected after sacrification. Samples collected at sacrifice were plasma, left cortex, left hippocampus, right cortex, right hippocampus, remainder of left brain hemisphere, remainder of right brain hemisphere. In total 48 animals were used and allocated to 4 treatment groups. The start position of the mouse and the position of the platform (FIG. 1) in the different trials of the MWM were as indicated in Table 9: […] A descriptive statistical analysis was performed on all evaluated parameters. All data were represented as mean ±standard error of mean (SEM). MWM learning curve data of three trials per day were averaged. Over a period of 4 days, the ability to find a hidden platform using visual cues was measured performing 3 trials a day. By comparison of the learning curves, the cognitive abilities of the different treatment groups and possible drug effects were evaluated.

FLT3 (K663Q) = FLT3 (K663Q) (Homo sapiens, UniProt P36888, K663Q); experiment: KINOMEscan binding assay; details: read-out: % Ctrl @ 10000 nM
MKNK2 = MKNK2 (Homo sapiens, UniProt Q9HBH9); experiment: KINOMEscan binding assay; details: read-out: % Ctrl @ 10000 nM
PRKR = PRKR (Homo sapiens, UniProt P19525); experiment: KINOMEscan binding assay; details: read-out: % Ctrl @ 10000 nM
CDK11 = CDK11 (Homo sapiens, UniProt Q9BWU1); experiment: KINOMEscan binding assay; details: read-out: % Ctrl @ 10000 nM
PCTK3 = PCTK3 (Homo sapiens, UniProt Q07002); experiment: KINOMEscan binding assay; details: read-out: % Ctrl @ 10000 nM
[4] = CK1a1, read-out: % of remaining activity (relative to DMSO)

CDK5/p25, sequence (Q00535 whole entry, species assumed): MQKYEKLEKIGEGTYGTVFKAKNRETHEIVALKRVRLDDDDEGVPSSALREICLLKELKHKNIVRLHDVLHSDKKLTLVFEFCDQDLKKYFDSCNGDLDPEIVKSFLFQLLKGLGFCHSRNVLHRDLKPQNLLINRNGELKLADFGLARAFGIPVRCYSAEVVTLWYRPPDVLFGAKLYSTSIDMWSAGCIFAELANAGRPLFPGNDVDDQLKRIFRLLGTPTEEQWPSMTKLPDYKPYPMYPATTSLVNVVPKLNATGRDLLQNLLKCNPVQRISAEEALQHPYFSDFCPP
EGFR, sequence (P00533 25-1210): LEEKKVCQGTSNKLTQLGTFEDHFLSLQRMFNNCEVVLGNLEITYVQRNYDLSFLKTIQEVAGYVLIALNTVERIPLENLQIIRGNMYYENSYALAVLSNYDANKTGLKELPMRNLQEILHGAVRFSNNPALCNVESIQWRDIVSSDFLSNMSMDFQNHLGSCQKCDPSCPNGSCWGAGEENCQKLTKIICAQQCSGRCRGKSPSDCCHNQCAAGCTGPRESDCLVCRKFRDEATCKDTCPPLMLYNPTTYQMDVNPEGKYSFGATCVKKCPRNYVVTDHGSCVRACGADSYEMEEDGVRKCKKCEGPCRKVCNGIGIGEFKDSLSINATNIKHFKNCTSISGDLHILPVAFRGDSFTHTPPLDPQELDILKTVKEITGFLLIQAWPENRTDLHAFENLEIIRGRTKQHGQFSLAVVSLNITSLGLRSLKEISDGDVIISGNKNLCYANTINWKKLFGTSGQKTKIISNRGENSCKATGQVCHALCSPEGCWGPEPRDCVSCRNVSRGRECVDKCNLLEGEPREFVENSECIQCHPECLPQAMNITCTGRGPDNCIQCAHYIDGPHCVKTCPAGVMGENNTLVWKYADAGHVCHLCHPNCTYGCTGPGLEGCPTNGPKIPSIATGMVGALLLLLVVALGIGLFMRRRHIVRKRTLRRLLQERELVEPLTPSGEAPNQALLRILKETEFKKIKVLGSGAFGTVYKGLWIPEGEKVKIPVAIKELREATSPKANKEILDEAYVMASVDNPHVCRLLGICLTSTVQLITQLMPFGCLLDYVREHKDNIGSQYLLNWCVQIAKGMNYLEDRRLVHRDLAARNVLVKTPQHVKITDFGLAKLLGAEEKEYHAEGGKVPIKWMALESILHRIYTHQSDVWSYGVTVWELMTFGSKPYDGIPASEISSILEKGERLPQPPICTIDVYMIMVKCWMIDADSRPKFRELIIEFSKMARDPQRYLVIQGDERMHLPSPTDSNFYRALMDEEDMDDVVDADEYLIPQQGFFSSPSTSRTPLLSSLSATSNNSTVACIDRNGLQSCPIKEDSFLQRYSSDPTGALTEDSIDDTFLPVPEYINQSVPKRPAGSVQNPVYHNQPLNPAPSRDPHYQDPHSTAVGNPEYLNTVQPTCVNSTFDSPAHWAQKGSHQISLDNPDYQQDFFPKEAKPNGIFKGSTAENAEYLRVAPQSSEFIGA
MSK1/RPS6KA5, sequence (O75582 whole entry): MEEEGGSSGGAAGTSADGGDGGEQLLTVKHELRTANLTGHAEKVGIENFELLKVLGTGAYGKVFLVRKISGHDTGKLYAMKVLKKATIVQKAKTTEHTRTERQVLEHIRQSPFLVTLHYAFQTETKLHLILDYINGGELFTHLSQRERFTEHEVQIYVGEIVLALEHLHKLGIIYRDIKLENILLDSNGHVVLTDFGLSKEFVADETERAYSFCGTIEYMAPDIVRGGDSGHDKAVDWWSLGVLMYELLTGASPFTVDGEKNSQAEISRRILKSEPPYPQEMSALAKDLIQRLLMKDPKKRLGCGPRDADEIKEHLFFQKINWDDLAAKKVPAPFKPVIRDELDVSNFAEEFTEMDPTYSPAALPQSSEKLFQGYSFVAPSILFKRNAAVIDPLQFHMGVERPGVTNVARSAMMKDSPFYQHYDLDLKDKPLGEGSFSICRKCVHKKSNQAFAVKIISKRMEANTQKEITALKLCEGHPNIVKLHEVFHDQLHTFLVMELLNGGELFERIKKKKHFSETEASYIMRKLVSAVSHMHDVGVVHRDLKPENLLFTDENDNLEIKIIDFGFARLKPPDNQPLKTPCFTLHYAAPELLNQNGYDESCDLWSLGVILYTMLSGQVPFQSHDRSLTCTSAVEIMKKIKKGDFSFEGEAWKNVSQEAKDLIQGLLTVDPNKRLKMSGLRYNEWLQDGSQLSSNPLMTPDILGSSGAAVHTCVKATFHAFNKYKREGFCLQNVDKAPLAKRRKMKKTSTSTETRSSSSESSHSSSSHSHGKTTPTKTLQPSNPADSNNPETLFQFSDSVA
CK1a1, sequence (P48729 whole entry): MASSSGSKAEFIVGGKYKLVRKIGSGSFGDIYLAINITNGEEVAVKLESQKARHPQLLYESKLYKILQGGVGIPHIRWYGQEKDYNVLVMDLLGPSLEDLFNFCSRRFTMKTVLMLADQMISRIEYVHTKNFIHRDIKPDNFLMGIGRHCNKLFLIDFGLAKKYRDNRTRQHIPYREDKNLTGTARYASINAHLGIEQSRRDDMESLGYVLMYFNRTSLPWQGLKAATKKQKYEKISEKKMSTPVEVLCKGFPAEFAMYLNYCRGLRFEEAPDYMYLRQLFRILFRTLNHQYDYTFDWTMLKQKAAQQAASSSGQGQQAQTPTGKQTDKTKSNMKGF
ROCK1, sequence (Q13464 whole entry): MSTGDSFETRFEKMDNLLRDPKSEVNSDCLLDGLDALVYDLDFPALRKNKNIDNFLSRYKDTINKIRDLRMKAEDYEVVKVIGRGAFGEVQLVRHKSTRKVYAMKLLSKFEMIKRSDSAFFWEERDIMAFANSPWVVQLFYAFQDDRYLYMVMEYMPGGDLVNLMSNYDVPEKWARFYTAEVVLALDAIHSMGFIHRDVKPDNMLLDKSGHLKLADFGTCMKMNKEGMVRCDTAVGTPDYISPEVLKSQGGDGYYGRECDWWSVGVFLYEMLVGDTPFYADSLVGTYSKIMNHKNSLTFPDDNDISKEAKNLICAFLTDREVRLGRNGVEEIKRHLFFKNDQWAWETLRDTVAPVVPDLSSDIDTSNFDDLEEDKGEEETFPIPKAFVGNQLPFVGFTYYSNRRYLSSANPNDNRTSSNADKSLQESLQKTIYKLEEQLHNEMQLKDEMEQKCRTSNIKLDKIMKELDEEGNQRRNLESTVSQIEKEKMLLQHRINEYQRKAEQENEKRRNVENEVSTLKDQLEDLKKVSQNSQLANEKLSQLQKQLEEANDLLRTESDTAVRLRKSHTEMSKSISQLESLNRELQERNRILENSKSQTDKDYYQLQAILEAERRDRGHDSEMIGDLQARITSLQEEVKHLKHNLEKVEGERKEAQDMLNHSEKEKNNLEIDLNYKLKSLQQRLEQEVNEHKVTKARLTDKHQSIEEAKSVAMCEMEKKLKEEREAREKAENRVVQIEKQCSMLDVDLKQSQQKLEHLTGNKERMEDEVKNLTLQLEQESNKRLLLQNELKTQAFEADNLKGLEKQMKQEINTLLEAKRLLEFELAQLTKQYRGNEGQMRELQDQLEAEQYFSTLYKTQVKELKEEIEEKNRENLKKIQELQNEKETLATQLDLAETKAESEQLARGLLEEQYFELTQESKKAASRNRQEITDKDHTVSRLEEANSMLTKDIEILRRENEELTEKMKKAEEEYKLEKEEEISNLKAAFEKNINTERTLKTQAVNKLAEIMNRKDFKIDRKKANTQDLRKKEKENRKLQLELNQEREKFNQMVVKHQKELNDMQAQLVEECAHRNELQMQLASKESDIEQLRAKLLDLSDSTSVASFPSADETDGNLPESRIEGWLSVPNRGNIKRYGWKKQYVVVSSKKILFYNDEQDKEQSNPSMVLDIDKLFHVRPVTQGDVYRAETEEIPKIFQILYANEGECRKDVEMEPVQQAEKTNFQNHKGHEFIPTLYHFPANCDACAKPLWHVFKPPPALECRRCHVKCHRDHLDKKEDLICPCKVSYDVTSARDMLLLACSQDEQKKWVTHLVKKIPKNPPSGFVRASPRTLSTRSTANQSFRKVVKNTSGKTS
CK1d (casein kinase 1 delta), sequence (P48730 whole entry): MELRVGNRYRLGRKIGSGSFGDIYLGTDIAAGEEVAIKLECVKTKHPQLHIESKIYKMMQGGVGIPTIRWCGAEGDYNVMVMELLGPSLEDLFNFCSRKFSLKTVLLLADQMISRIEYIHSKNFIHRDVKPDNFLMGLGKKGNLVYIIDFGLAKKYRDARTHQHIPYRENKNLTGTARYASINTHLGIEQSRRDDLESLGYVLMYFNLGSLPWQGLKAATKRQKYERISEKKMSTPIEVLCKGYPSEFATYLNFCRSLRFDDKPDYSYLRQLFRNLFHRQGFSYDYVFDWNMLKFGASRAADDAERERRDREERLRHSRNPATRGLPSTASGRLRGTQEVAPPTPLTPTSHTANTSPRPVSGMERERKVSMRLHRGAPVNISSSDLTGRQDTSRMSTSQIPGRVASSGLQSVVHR
PRKR, sequence (P19525 whole entry): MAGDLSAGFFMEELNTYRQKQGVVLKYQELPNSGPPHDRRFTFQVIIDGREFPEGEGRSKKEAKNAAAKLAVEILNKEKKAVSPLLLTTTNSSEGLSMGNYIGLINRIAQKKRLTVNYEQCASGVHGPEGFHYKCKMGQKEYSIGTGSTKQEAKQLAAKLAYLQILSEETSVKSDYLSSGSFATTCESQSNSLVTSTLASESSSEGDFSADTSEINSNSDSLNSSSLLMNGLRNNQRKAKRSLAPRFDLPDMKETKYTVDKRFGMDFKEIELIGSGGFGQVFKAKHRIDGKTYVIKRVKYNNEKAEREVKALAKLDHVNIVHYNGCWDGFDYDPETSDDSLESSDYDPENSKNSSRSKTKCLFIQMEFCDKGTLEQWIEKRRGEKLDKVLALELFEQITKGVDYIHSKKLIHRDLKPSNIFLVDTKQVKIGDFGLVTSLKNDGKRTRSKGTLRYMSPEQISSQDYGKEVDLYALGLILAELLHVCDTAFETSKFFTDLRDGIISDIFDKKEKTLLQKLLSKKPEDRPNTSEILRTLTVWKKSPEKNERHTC

| SMILES | remaining activity at 10 µM (ROCK1) [%] | remaining activity at 10 µM (MSK1/RPS6KA5) [%] | remaining activity at 10 µM (EGFR) [%] | remaining activity at 10 µM (CDK5/p25) [%] | remaining activity at 10 µM (CK1a1; [4]) [%] | remaining activity at 10 µM [1] [%] | IC50 [1] [nM] | remaining binding at 10 µM (PIK3CA (E542K)) [%] | remaining binding at 10 µM (LRRK2) [%] | remaining binding at 10 µM (ZAP70) [%] | remaining binding at 10 µM (VEGFR2) [%] | remaining binding at 10 µM (CIT) [%] | Escape latency (time to reach the target), Mean ± SEM, Day 1 [3] [s] | Path length to reach the target, Mean ± SEM, Day 1 [3] [meter] | Escape latency (time to reach the target), Mean ± SEM, Day 2 [3] [s] | Path length to reach the target, Mean ± SEM, Day 2 [3] [meter] | Escape latency (time to reach the target), Mean ± SEM, Day 3 [3] [s] | Path length to reach the target, Mean ± SEM, Day 3 [3] [meter] | Escape latency (time to reach the target), Mean ± SEM, Day 4 [3] [s] | Path length to reach the target, Mean ± SEM, Day 4 [3] [meter] | other results |
| --- | --- | --- | --- | --- | --- | --- | --- | --- | --- | --- | --- | --- | --- | --- | --- | --- | --- | --- | --- | --- | --- |
| COc1ccc(C=C2N=C(c3cccs3)OC2=O)cc1 [Comparative Compound 315, 4-((4-methoxyphenyl)methylene)-2-(2-thienyl)-5(4H)-oxalone] | 93.4 | 117 | 111 | 96.1 | 33.6 | 2.23 | 435 | – | – | – | – | – | – | – | – | – | – | – | – | – | % of remaining activity (relative to DMSO) (ROCK1; listed as Cmp 315): 90.20%; % of remaining activity (relative to DMSO) (MSK1/RPS6KA5; listed as Cmp 315): 118.15%; % of remaining activity (relative to DMSO) (EGFR; listed as Cmp 315): 117.99%; % of remaining activity (relative to DMSO) (CDK5/p25; listed as Cmp 315): 94.86%; % of remaining activity (relative to DMSO) (CK1a1; CK1a1, listed as Cmp 315): 44.41%; % of remaining activity (relative to DMSO) ([1]; listed as Cmp 315): 1.38% |
| Nc1ncc(-c2nc3ccccc3o2)c(-c2ccncc2)n1 [Comparative Compound 324, 5-(1,3-benzoxazol-2-yl)-4-(pyridine-4-yl)pyrimidin-2-amine] | 109 | 81.1 | 83.8 | 87.7 | 65.7 | 13.3 | 483 | 98 | 83 | 78 | 94 | 73 | 54.9 ± 2.66 | 8.81 ± 0.55 | 46.6 ± 3.82 | 6.77 ± 0.64 | 39.8 ± 3.95 | 5.25 ± 0.58 | 36.9 ± 3.87 | 5.17 ± 0.62 | % of remaining activity (relative to DMSO) (ROCK1; listed as Cmp 324): 109.68%; % of remaining activity (relative to DMSO) (MSK1/RPS6KA5; listed as Cmp 324): 94.78%; % of remaining activity (relative to DMSO) (EGFR; listed as Cmp 324): 79.83%; % of remaining activity (relative to DMSO) (CDK5/p25; listed as Cmp 324): 97.13%; % of remaining activity (relative to DMSO) (CK1a1; CK1a1, listed as Cmp 324): 58.48%; % of remaining activity (relative to DMSO) ([1]; listed as Cmp 324): 11.87%; remaining binding at 10 µM [2]: 100%; remaining binding at 10 µM (PCTK2): 99%; remaining binding at 10 µM (CDKL3): 100%; remaining binding at 10 µM (TAOK1): 100%; remaining binding at 10 µM (ZAK): 79%; remaining binding at 10 µM (MAP3K1): 85%; remaining binding at 10 µM (TRKC): 81%; remaining binding at 10 µM (FLT3 (K663Q)): 100%; remaining binding at 10 µM (MKNK2): 70%; remaining binding at 10 µM (PRKR): 96%; remaining binding at 10 µM (CDK11): 100%; remaining binding at 10 µM (PCTK3): 86% |
| CNc1c(C(N)=O)c2ccccn2c1C(=O)c1ccc(F)cc1 [Compound A, 2-methyl-amino-3-[(4-fluorophenyl)carbonyl]indolizine-1-carboxamide] | 95.5 | 117 | 55.8 | 90.2 | 5.17 | 1.15 | 17.4 | 90 | 82 | 93 | 79 | 58 | 58.1 ± 1.44 | 9.20 ± 0.46 | 53.7 ± 2.41 | 8.60 ± 0.52 | 49.4 ± 3.23 | 7.05 ± 0.62 | 45.4 ± 3.22 | 6.94 ± 0.62 | % of remaining activity (relative to DMSO) (ROCK1; listed as Cmp A): 96.14%; % of remaining activity (relative to DMSO) (MSK1/RPS6KA5; listed as Cmp A): 111.83%; % of remaining activity (relative to DMSO) (EGFR; listed as Cmp A): 52.51%; % of remaining activity (relative to DMSO) (CDK5/p25; listed as Cmp A): 88.62%; % of remaining activity (relative to DMSO) (CK1a1; CK1a1, listed as Cmp A): 5.37%; % of remaining activity (relative to DMSO) ([1]; listed as Cmp A): 0.98%; remaining binding at 10 µM [2]: 88%; remaining binding at 10 µM (PCTK2): 83%; remaining binding at 10 µM (CDKL3): 93%; remaining binding at 10 µM (TAOK1): 94%; remaining binding at 10 µM (ZAK): 92%; remaining binding at 10 µM (MAP3K1): 76%; remaining binding at 10 µM (TRKC): 75%; remaining binding at 10 µM (FLT3 (K663Q)): 99%; remaining binding at 10 µM (MKNK2): 58%; remaining binding at 10 µM (PRKR): 90%; remaining binding at 10 µM (CDK11): 95%; remaining binding at 10 µM (PCTK3): 84% |
| Nc1ncnc2c1c(COc1cccc(Cl)c1)nn2C1CCOCC1 [PF4800567, 3-[(3-Chlorophenoxy)methyl]-1-(tetrahydro-2H-pyran-4-yl)-1H-pyrazolo[3,4-d]pyrimidin-4-amine] | 95.2 | 104 | 68.8 | 97.7 | – | 8.41 | – | – | – | – | – | – | 51.1 ± 3.10 | 8.00 ± 0.54 | 50.0 ± 3.49 | 7.51 ± 0.56 | 43.6 ± 3.86 | 5.83 ± 0.61 | 44.0 ± 3.72 | 5.70 ± 0.58 | remaining activity at 10 µM (CK1a1; read-out: % of remaining activity (relative to DMSO), CK1a1): 29.3% |
